“Also recorded” adds a separate entry of the source. Where two headings read alike, the source gives them in different places.
Columns and labels:
[1] = target: T1, MMP-2 (Homo sapiens, UniProt P08253); assay: In vitro inhibition of MMP-2 (Biomol assay kit); assay type: biochemical; conditions: read-out: 50% Inhibition Concentration MMP-2 (converted)
T1 construct: purchased Biomol Corporation
Source text: (§1) In vitro specific inhibition of MMP-2 and MMP-9 activity by [R]-(N-[(2,4-dihydroxyphenyl)ethyl]glycine and [S]-N-[(2,4-dihydroxyphenyl)ethyl]glycine was estimated with assay kits from Biomol Corporation. Recombinant human MMP-1 enzyme was obtained from R&D Systems. The enzyme was first activated with APMA according to the protocol provided by R&D Systems. The experimental conditions for the screening of MMP-1 inhibitors were similar to the settings used for MMP-2 and MMP-9 testing.
(§2) In vitro inhibition of MMP1, 2 and 9 for several samples (mcg=micro-grams).

[2] = target: T2, MMP-9 (Homo sapiens, UniProt P14780); assay: In vitro inhibition of MMP-9 (Biomol assay kit); assay type: biochemical; conditions: read-out: 50% Inhibition Concentration MMP-9 (converted)
T2 construct: purchased Biomol Corporation
Source text: as §1, §2

[3] = test system: skin; assay: Differences in antiaging and skin whitening affect of [S] and [R] isomers
[4] = test system: mushroom tyrosinase; assay: Inhibition of tyrosinase, kinetic analysis; assay type: biochemical; conditions: for IC50: 20 C, phosphate buffer 100 mM, pH 6.8, read-out: Tyrosinase Inhibitory Concentration
Method: Method. Kinetic analysis of 2,4 DHA inhibition.
All reactions were performed at 20 C, in phosphate buffer 100 mM, pH 6.8, mushroom tyrosinase.

[5] = test system: Matrix metalloproteases; assay: In vitro inhibition of Matrix metalloproteases, overall assessment; assay type: biochemical
Source text: as §1

[6] = target: T3, Recombinant human MMP-1 enzyme (Homo sapiens, UniProt P03956); assay: In vitro inhibition of MMP-1; assay type: biochemical; conditions: enzyme activated with APMA, read-out: 50% Inhibition Concentration MMP-1 (converted)
T3 construct: purchased R&D Systems
T3 sequence (P03956 100-469): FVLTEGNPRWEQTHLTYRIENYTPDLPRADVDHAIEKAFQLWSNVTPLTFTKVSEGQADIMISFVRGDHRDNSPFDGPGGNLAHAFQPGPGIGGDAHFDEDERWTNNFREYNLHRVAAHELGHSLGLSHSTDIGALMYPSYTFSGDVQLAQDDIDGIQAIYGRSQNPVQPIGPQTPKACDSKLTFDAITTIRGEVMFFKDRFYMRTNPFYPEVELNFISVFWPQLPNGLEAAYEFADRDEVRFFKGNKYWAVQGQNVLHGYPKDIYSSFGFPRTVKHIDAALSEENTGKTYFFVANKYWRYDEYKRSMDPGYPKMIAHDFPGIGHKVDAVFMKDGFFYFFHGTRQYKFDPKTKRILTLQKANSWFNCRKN
Source text: as §1, §2

T1 sequence (P08253 110-452 limits assumed, species assumed): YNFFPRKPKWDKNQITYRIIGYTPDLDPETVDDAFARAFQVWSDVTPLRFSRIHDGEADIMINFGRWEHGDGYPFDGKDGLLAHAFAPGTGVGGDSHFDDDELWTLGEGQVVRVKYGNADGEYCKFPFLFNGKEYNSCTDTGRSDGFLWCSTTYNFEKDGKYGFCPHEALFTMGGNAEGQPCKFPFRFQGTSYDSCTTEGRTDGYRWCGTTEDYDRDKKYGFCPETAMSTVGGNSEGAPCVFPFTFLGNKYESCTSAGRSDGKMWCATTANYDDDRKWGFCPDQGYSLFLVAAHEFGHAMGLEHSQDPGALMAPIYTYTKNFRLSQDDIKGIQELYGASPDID
T2 sequence (P14780 107-444 limits assumed, species assumed): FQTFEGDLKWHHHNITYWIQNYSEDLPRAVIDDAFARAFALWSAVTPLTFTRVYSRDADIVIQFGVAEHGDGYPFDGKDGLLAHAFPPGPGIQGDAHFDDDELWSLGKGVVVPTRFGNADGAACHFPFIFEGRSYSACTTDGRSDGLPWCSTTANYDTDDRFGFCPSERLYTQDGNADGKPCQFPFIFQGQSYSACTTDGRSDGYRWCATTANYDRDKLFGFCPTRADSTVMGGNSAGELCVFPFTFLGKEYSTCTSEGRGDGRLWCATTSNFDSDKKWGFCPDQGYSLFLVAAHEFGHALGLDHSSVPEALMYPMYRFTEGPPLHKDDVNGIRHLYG

| SMILES | IC50 [1] | IC50 [2] | Skin whitening benefits, [R] versus [S] isomer [3] | Tyrosinase inhibition (in words) [4] | IC50 [4] | Tyrosinase inhibition (in words) ([4]; listed as [R]-(N-[(2,4-dihydroxyphenyl)ethyl]glycine)) | MMP inhibition (in words) ([5]; MMP1, 2 and 9) | MMP inhibition (in words) ([5]; MMP1, 2 and 9, listed as [R]-(N-[(2,4-dihydroxyphenyl)ethyl]glycine)) | IC50 [6] | Antiwrinkle properties, [S] versus [R] isomer [3] |
| --- | --- | --- | --- | --- | --- | --- | --- | --- | --- | --- |
| C[C@@H](NCC(=O)O)c1ccc(O)cc1O | 71 µM | 94.7 µM | better skin whitening benefits | excellent inhibitor | 5000 µM | anti-tyrosinase activity | very good and general inhibition | MMP inhibition | 94.7 µM |  |
| OC[C@H]1O[C@@H](Oc2ccc(O)cc2)[C@H](O)[C@@H](O)[C@@H]1O [Arbutin, reference compound] |  |  |  |  | 25000 µM |  |  |  |  |  |
| C[C@H](NCC(=O)O)c1ccc(O)cc1O [[S]-N-[(2,4-dihydroxyphenyl)ethyl]glycine] | 189 µM | 284 µM |  | anti-tyrosinase activity; also recorded: excellent inhibitor | 10000 µM |  | MMP inhibition; also recorded: just a bit weaker, but still quite acceptable |  | 166 µM | better antiwrinkle properties |
